33 molecules from PubChem BioAssay AID588715 (Vanderbilt Specialized Chemistry Center, 2011) can be followed below.

The source made the active and inactive calls. No rule for the calls is given here.

Sequence of Metabotropic glutamate receptor 5 (Rattus norvegicus) (P31424 whole entry, looked up): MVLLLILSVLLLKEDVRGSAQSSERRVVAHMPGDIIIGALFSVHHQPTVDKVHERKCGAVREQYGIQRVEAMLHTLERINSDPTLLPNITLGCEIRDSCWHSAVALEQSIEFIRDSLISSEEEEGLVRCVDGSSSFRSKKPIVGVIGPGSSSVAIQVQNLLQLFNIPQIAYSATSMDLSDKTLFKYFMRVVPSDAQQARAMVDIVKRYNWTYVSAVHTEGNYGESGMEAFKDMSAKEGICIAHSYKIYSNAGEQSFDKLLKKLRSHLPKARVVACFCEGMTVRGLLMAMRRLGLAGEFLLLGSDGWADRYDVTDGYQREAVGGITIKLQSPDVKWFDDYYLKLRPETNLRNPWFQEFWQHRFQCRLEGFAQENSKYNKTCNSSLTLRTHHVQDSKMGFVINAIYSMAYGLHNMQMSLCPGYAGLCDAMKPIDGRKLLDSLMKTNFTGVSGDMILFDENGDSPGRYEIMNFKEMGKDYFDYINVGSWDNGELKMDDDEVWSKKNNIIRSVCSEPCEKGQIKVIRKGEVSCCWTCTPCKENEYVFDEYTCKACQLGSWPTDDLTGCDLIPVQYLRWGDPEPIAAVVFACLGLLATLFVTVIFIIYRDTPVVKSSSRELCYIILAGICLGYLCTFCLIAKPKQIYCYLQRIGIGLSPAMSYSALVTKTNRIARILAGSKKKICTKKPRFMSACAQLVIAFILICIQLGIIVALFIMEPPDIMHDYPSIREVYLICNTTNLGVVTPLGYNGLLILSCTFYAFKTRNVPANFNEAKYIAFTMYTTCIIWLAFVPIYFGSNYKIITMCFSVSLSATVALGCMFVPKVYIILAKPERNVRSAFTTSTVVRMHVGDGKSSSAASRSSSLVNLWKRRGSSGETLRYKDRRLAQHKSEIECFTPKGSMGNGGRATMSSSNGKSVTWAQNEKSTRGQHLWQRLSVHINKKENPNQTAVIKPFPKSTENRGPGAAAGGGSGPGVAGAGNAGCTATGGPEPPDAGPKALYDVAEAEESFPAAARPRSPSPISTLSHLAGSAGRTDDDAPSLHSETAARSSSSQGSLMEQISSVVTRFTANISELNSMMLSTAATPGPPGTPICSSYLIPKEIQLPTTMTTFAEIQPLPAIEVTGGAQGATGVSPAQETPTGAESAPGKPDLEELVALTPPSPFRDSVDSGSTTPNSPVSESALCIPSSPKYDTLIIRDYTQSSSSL

The first test concerns the target Metabotropic glutamate receptor 5 (Rattus norvegicus) (UniProt P31424). Put plainly: mGluR5 positive allosteric modulators, SAR follow-up, cell-based, HEK293A, calcium mobilization, rat (AID 588715). The note with it: HEK293A rat mGluR5, Ca2+ mobilization fluorescence, PAM. (A change in cytosolic calcium serves as a functional read-out for many receptors and channels.)
Consider `C[C@@H](NC(=O)c1ccc(C#CC2CC2)cn1)C(C)(C)O`, for which the EC50 is 1580 nM.
Same read-out and setting: with `O=C(NC1CC(O)C1)c1ccc(C#Cc2cccc(F)c2)cn1` (stereo not drawn) the figure was 193 nM.
The same measure, in the same setting: with `CC(C)(C)NC(=O)c1ccc(C#Cc2cccc(F)c2)cn1` the figure was 13 nM; with `O=C(c1ccc(C#Cc2ccccc2)cc1)N1CCC(O)CC1`, 523 nM.
On the same count and under the same terms, with `CC(C)(CO)NC(=O)c1ccc(C#Cc2cccc(F)c2)nc1` the figure was 213 nM.
As to `O=C(NC1CCC1)c1ccc(C#CC2CC2)cn1`, the EC50 is 1280 nM.
Still for that read-out and setting: next, `CC(C)(C)NC(=O)c1ccc(C#Cc2cccc(F)c2)nc1`: 35 nM.
Still for that read-out and setting: with `O=C(NC1COC1)c1ccc(C#Cc2cccc(F)c2)nc1` the figure was 4820 nM; with `C[C@@H](NC(=O)c1ccc(C#Cc2cccc(F)c2)nc1)C(C)(C)O`, 90 nM; with `O=C(NC1CCC1)c1ccc(C#Cc2cccc(F)c2)nc1`, 71 nM.
For the molecule `O=C(COCc1ccncc1)N1CCN(c2ccc(F)cc2Cl)CC1`, the EC50 is 2280 nM.
Take `O=C(NC1CCC1)c1ccc(C#Cc2cccc(F)c2)cn1`: the EC50 was 12 nM.
Same read-out and setting: next, `O=C(NC1CCC1)c1ccc(C#CC2CCCC2)cn1`: 265 nM; `CC(CO)(CO)NC(=O)c1ccc(C#Cc2cccc(F)c2)cn1`: 409 nM.
`O=C(NC1CCC1)c1ccc(C#Cc2cccc(F)c2)c[n+]1[O-]`: the EC50 is 25 nM.
Still for that read-out and setting: next, `O=C(c1ccc(C#Cc2cccc(F)c2)nc1)N1CCC(O)CC1`: 545 nM; `CC(C)(CO)NC(=O)c1ccc(C#Cc2cccc(F)c2)cn1`: 6 nM; `C[C@@H](NC(=O)c1ccc(C#Cc2cccc(F)c2)cn1)C(C)(C)O`: 8 nM.

The same test, now with this note: HEK293A rat mGluR5, Ca2+ mobilization fluorescence, PAM; at 29.8 µM (top of the series).
In the case of `O=C(NC1CC(O)C1)c1ccc(C#CC2CC2)cc1` (stereo not drawn), the “percent of glutamate ECmax” value was “inactive”.
The same measure, in the same setting: next, `O=C(c1ccc(C#Cc2cccc(F)c2)cn1)N1CCC(O)CC1`: “inactive”; `C[C@@H](NC(=O)c1ccc(C#CC2CC2)nc1)C(C)(C)O`: “inactive”; `CC1(NC(=O)c2ccc(C#CC3CC3)nc2)COC1`: “inactive”.
On the same count and under the same terms, with `CC1(NC(=O)c2ccc(C#Cc3cccc(F)c3)nc2)COC1` the figure was 40; with `CC1(NC(=O)c2ccc(C#CC3CC3)cc2)COC1`, “inactive”; with `O=C(NC1CCC1)c1ccc(C#CC2CC2)c[n+]1[O-]`, “inactive”.
For the molecule `C[C@@H](NC(=O)c1ccc(C#CC2CC2)cc1)C(C)(C)O`, the percent of glutamate ECmax was 45.
The same measure, in the same setting: with `O=C(c1ccc(C#Cc2cccc(F)c2)cn1)N1CCCCC1` the entry was “inactive”; with `CC(C)(CO)NC(=O)c1ccc(C#CC2CC2)cn1`, “inactive”; with `O=C(NC1CC(O)C1)c1ccc(C#CC2CC2)cn1` (stereo not drawn), “inactive”.
Still for that read-out and setting: next, `CC1(NC(=O)c2ccc(C#CC3CC3)cn2)COC1`: “inactive”; `O=C(O)c1ccc(C#Cc2cccc(F)c2)cn1`: “inactive”.
On the same count and under the same terms, next, `CC(C)(CO)NC(=O)c1ccc(C#CC2CC2)nc1`: “inactive”; `CC(C)(CO)NC(=O)c1ccc(C#CC2CC2)cc1`: “inactive”.

In general, EC50 refers to the concentration at which the effect is half-maximal.
